Data on 13 molecules can be found in paper PMC7655065, “Effect of 3-subsitution of quinolinehydroxamic acids on selectivity of histone deacetylase isoforms” (Journal of Enzyme Inhibition and Medicinal Chemistry, 2020).

In assay [1] the test system is A549 cells. Kind of assay: Sulforhodamine B antiproliferative assay, A549. The format is cell-based. The note with it: Homo sapiens; A549 cells, SRB, 48 h; values > 10 μM estimated from best curve fitting; read-out: Antiproliferative activity IC50, A549. The method, then: (§1) All human cancer cells were maintained in RPMI 1640 medium supplemented with 10% FBS and penicillin (100 units/ml)/streptomycin (100 µg/ml)/amphotericin B (0.25 µg/ml). All cells were maintained in humidified air containing 5% CO2 at 37 °C and cultured every 2–3 days. […]
(§2) Cells were seeded at the density of 5000 cells/well into 96-plate overnight. Basal cells were fixed with 10% trichloroacetic acid (TCA) to represent the cell population at the time of compound addition (T0). After additional incubation of DMSO (C) or different doses of test compounds (Tx) for 48 h, cells were fixed with 10% TCA and stained with SRB at 0.4% (w/v) in 1% AcOH. Unbound SRB was washed out using 1% AcOH and SRB bound cells were solubilised with 10 mM Trizma base. The absorbance was read at a wavelength of 515 nm. The 50% growth inhibition (GI50) was calculated by 100 − [(Tx – T0)/(C – T0)] × 100.

Another assay deals with HCT116 cells. Briefly: Sulforhodamine B antiproliferative assay, HCT116. Type of assay: cell-based. The settings on record: Homo sapiens, HCT-116, SRB, 48 h, values > 10 μM estimated from best curve fitting. The method, then: as §1, §2
A further assay concerns the target T1, HDAC1 (Homo sapiens, UniProt Q13547).
T1 construct: EurofinPanlabs (Taipei, Taiwan)
Briefly: HDAC biochemical assay (Fluor-de-Lys), HDAC1. The settings on record: for IC50: human recombinant HDAC1, values > 10 μM estimated from best curve fitting; for Selectivity ratio of HDAC1 over HDAC6: IC50 HDAC1 / IC50 HDAC6.

The target of a further assay is T2, HDAC6 (Homo sapiens, UniProt Q9UBN7).
T2 construct: EurofinPanlabs (Taipei, Taiwan)
T2 sequence (Q9UBN7 1-1215): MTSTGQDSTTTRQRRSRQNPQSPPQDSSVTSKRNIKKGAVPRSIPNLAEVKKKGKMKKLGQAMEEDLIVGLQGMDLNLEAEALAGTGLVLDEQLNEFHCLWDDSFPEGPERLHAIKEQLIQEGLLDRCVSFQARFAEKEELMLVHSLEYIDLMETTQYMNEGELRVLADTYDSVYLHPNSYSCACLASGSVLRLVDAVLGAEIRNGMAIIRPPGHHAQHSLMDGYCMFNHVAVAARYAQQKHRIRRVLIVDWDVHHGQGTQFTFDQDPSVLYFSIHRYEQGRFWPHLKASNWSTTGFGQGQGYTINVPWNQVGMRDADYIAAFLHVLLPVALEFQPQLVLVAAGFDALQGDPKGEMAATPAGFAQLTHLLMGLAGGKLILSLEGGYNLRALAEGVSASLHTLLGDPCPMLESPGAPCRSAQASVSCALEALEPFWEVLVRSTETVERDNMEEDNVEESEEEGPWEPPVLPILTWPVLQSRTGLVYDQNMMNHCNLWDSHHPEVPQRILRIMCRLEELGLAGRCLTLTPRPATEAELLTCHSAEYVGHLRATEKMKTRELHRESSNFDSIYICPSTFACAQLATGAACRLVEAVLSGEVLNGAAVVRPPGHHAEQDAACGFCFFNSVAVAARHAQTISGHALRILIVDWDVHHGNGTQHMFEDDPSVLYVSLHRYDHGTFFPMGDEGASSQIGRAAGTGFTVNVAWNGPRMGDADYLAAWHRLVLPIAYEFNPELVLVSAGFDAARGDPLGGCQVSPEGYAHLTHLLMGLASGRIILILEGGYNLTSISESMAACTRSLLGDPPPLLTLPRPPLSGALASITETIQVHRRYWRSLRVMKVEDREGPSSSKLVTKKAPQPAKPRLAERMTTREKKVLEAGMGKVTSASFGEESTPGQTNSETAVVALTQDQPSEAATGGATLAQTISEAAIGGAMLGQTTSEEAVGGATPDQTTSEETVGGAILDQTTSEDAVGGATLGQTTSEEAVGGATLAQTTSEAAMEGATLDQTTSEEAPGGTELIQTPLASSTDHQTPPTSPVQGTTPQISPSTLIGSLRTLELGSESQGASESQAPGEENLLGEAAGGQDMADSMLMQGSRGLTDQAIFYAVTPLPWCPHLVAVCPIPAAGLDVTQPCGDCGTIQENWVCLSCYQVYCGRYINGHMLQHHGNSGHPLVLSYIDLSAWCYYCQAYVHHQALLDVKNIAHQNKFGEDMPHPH
Briefly: HDAC biochemical assay (Fluor-de-Lys), HDAC6. The note with it: human recombinant HDAC6.

The target in a further assay is T3, HDAC8 (Homo sapiens, UniProt Q9BY41).
T3 construct: EurofinPanlabs (Taipei, Taiwan)
T3 sequence (Q9BY41 1-377): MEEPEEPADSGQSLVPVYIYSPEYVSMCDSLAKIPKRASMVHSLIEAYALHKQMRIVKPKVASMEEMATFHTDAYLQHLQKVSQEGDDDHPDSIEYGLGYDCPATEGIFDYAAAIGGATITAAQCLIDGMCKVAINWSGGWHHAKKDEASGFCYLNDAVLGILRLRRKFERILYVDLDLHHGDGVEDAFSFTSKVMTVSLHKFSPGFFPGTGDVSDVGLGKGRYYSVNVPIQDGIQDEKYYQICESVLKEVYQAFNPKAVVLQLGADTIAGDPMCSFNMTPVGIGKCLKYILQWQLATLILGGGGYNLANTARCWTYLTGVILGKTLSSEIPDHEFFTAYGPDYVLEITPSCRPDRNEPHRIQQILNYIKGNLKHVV
Briefly: HDAC biochemical assay (Fluor-de-Lys), HDAC8. The settings on record: for IC50: human recombinant HDAC8; for Selectivity ratio of HDAC8 over HDAC6: IC50 HDAC8 / IC50 HDAC6.

The next assay has as its target T4, HDAC2 (Homo sapiens, UniProt Q92769).
T4 construct: EurofinPanlabs (Taipei, Taiwan)
Briefly: HDAC biochemical assay (Fluor-de-Lys), HDAC2. The note with it: for Selectivity ratio of HDAC2 over HDAC6: IC50 HDAC2 / IC50 HDAC6; for IC50: human recombinant HDAC2, dash = no inhibition or activity that could not be fitted to an IC50 curve.

Assay [2] relates to A549 cells. Briefly: Western blot analysis of apoptosis and DNA damage markers. Type of assay: cell-based, human. The note with it: A549 cells, 48 h; comparison among the three tested compounds. The method, then: buffer (20 mMTris-HCl pH 7.5, 150 mM NaCl, 1 mM Na2EDTA, 1 mM EGTA, 1% NP-40, 1% sodium deoxycholate, 0.1% SDS, 2.5 mM β-glycerylphosphate, 1 mM Na4P2O7, 5 mM NaF, 1 mM Na3VO4 and protease inhibitor cocktail from Millipore) on ice for 30 min following by centrifugation at 13000 rpm for 30 min. Protein concentrations were determined and equal amounts of protein were separated by 8–15% sodium dodecyl sulphate-polyacrylamide gel electrophoresis (SDS–PAGE) and transferred to poly(vinylidene difluoride) (PVDF) membranes. Membranes were immunoblotted with specific antibodies overnight at 4 °C and then applied to appropriate horseradish peroxidase-conjugated anti-mouse or anti-rabbit IgG secondary antibodies for 1 h at RT. Signals were detected using an enhanced chemiluminescence (Amersham, Buckinghamshire, UK).

T1 sequence (Q13547 whole entry): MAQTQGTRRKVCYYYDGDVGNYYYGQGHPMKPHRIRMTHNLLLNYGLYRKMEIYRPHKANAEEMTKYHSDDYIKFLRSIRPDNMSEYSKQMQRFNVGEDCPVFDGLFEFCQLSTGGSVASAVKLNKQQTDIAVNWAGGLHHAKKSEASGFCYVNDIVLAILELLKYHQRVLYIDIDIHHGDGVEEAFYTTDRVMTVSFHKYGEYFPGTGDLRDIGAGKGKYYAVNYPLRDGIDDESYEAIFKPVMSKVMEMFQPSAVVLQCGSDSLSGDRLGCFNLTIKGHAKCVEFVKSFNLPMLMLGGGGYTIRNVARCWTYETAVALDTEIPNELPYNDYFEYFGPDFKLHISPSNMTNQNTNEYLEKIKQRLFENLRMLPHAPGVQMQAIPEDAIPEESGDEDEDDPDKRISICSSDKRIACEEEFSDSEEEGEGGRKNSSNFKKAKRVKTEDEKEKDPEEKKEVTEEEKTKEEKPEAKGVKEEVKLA
T4 sequence (Q92769 whole entry): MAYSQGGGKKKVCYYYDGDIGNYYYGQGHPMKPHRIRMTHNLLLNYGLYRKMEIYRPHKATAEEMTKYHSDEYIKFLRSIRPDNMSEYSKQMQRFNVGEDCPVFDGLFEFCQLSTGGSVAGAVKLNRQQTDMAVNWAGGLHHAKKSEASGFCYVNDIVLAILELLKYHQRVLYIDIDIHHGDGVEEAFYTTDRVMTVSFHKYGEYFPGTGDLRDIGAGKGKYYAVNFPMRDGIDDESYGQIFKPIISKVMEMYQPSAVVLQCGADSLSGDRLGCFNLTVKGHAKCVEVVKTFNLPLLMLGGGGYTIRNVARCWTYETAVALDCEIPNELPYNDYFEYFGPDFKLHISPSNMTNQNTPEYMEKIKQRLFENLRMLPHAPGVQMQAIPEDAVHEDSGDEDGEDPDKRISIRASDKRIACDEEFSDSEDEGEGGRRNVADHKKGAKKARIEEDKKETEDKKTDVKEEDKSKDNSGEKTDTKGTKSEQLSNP

With `O=C(NO)c1ccc(CNc2cccc3cc(Br)cnc23)cc1` [Compound 15, 4-[(3-Bromo-quinolin-8-ylamino)-methyl]-N-hydroxy-benzamide], the IC50 in the assay with A549 cells [1] and in the assay with HCT116 cells was more than 10 µM each time.
Consider `O=C(NO)c1ccc(CNc2cccc3cc(-c4cccc([N+](=O)[O-])c4)cnc23)cc1` [Compound 24, N-Hydroxy-4-(((3–(3-nitrophenyl)quinolin-8-yl)amino)methyl)benzamide], for which the figures for the IC50 in the assay with A549 cells [1] and in the assay on HCT116 cells were 4.05 ± 0.42 µM and 2.88 ± 0.21 µM, respectively.
Regarding `O=C(NO)c1ccc(CNc2cccc3cc(Cl)cnc23)cc1` [Compound 14, 4-[(3-Chloro-quinolin-8-ylamino)-methyl]-N-hydroxy-benzamide], the IC50 with A549 cells [1] was 3.14 ± 0.31 µM; with HCT116 cells it was 4.82 ± 0.29 µM; at HDAC1 it was 4.32 µM; at HDAC6, 0.0202 µM; on HDAC8 it was 3.64 µM.
Regarding `O=C(NO)c1ccc(CNc2cccc3cc(-c4ccoc4)cnc23)cc1` [Compound 28, 4-(((3-(Furan-3-yl)quinolin-8-yl)amino)methyl)-N-hydroxybenzamide], the IC50 was 3.77 ± 0.28 µM in the assay on A549 cells [1]; 3.77 ± 0.21 µM in the assay with HCT116 cells; 4.59 µM at HDAC1; 2.1 µM on HDAC2; 0.0134 µM at HDAC6; 2.91 µM at HDAC8. Moreover, at HDAC1, the “Selectivity ratio of HDAC1 over HDAC6” value is reported as “(343)”. The “Selectivity ratio of HDAC2 over HDAC6” value on HDAC2 is “(157)”. Further, on HDAC8, the “Selectivity ratio of HDAC8 over HDAC6” value was “(216)”.
As for `O=C(NO)c1ccc(CNc2cccc3cc(I)cnc23)cc1` [Compound 16, N-Hydroxy-4-[(3-iodo-quinolin-8-ylamino)-methyl]-benzamide], the half-inhibitory concentration (IC50) is 3.41 ± 0.9 µM with A549 cells [1] and 4.79 ± 0.47 µM in the assay on HCT116 cells.
In the case of `COc1cnc2c(NCc3ccc(C(=O)NO)cc3)cccc2c1` [Compound 17, N-Hydroxy-4-[(3-methoxy-quinolin-8-ylamino)-methyl]-benzamide], the IC50 was 3.11 ± 0.24 µM in the assay on A549 cells [1]; 4.76 ± 0.43 µM with HCT116 cells; 4.95 µM at HDAC1; more than 10 µM at HDAC2; 0.00779 µM on HDAC6; 2.76 µM on HDAC8. Further, the “Rank of efficacy in cleaving caspase isoforms (Western blot)” value in the assay on A549 cells [2] is on record as “least potent amongst these three compounds”.
For `N#Cc1ccc(-c2cnc3c(NCc4ccc(C(=O)NO)cc4)cccc3c2)cc1` [Compound 23, 4-(((3–(4-Cyanophenyl)quinolin-8-yl)amino)methyl)-N-hydroxybenzamide], the IC50 in the assay on A549 cells [1] is 3.64 ± 0.66 µM; in the assay with HCT116 cells it was 3.5 ± 0.32 µM.
As for `COc1ccccc1-c1cnc2c(NCc3ccc(C(=O)NO)cc3)cccc2c1` [Compound 19, N-Hydroxy-4-(((3–(2-methoxyphenyl)quinolin-8-yl)amino)methyl)benzamide], the values for the IC50 in the assay on A549 cells [1] and in the assay with HCT116 cells were more than 10 µM and 7.19 ± 0.77 µM, respectively.
`N#Cc1cccc(-c2cnc3c(NCc4ccc(C(=O)NO)cc4)cccc3c2)c1` [Compound 22, 4-(((3–(3-Cyanophenyl)quinolin-8-yl)amino)methyl)-N-hydroxybenzamide]: the IC50 in the assay with A549 cells [1] was 2.04 ± 0.35 µM; in the assay on HCT116 cells, 3.18 ± 0.16 µM; at HDAC1, 9.11 µM; on HDAC2 it was 1.98 µM; at HDAC6, 0.0362 µM; at HDAC8, 3.83 µM. For the same molecule, the “Selectivity ratio of HDAC1 over HDAC6” value at HDAC1 is on record as “(252)”. Besides, the “Selectivity ratio of HDAC2 over HDAC6” value on HDAC2 is “(55)”. Moreover, the “Selectivity ratio of HDAC8 over HDAC6” value at HDAC8 is “(106)”.
For `COc1ccc(-c2cnc3c(NCc4ccc(C(=O)NO)cc4)cccc3c2)cc1` [Compound 20, N-Hydroxy-4-(((3–(4-methoxyphenyl)quinolin-8-yl)amino)methyl)benzamide], the IC50 was 9.1 ± 0.3 µM in the assay on A549 cells [1] and more than 10 µM in the assay on HCT116 cells.
As for `N#Cc1ccccc1-c1cnc2c(NCc3ccc(C(=O)NO)cc3)cccc2c1` [Compound 21, 4-(((3–(2-Cyanophenyl)quinolin-8-yl)amino)methyl)-N-hydroxybenzamide amide], the concentration for half-maximal inhibition (IC50) with A549 cells [1] is 8.65 ± 2.35 µM; in the assay on HCT116 cells, 6 ± 1.56 µM.
With `O=C(NO)c1ccc(CNc2cccc3cc(-c4ccco4)cnc23)cc1` [Compound 27, 4-(((3-(Furan-2-yl)quinolin-8-yl)amino)methyl)-N-hydroxybenzamide], the IC50 in the assay on A549 cells [1] is 3.18 ± 0.19 µM; with HCT116 cells, 2.2 ± 0.17 µM; on HDAC1 it was 3.4 µM; on HDAC2, 1.28 µM; at HDAC6, 0.0207 µM; on HDAC8, 3.14 µM. Besides, the “Selectivity ratio of HDAC1 over HDAC6” value on HDAC1 was “(164)”. Also, the “Selectivity ratio of HDAC2 over HDAC6” value on HDAC2 was “(62)”. At HDAC8, the “Selectivity ratio of HDAC8 over HDAC6” value was “(152)”.
Consider `O=C(NO)c1ccc(CNc2cccc3cc(-c4ccsc4)cnc23)cc1` [Compound 29, N-Hydroxy-4-(((3-(thiophen-3-yl)quinolin-8-yl)amino)methyl)benzamide], for which the IC50 with A549 cells [1] was 3.84 ± 0.4 µM; in the assay on HCT116 cells, 3.59 ± 0.51 µM; at HDAC1, 6 µM; at HDAC2 it was 3.52 µM; at HDAC6 it was 0.0301 µM; at HDAC8, 4.93 µM. For the same molecule, the “Selectivity ratio of HDAC1 over HDAC6” value on HDAC1 is “(199)”. Further, the “Selectivity ratio of HDAC2 over HDAC6” value at HDAC2 is listed as “(117)”. At HDAC8, the “Selectivity ratio of HDAC8 over HDAC6” value is “(164)”.
